Source: patent US8053417B2, “Hexosylceramides as adjuvants and their uses in pharmaceutical compositions” (Helmholtz-Zentrum fuer Infektionsforschung GmbH, priority 2005, dated 2011)

Columns and labels:
[1] = test system: Unstimulated spleen cells; assay: In vitro stimulation of unstimulated spleen cells ([3H]thymidine uptake); assay type: cell-based, mice; settings: 4 days
Experimental: Experimental protocol: Spleens from female BALB/c (H-2d, Harlan Winkelmann) or CD1d−/− (Jackson Laboratories) mice of 6 weeks of age were removed and pooled for analysis of cellular immune responses. Cells were grown in RPMI 1640 supplemented with 10% fetal calf serum, 100 U/ml of penicillin, 50 μg/ml of streptomycin, 5×10^−5 M 2-mercaptoethanol and 1 mM L-glutamine (GIBCO BRL, Karlsruhe, Germany) and maintained at 37° C. in a humidified 5% CO2 atmosphere. Spleen cell suspensions were adjusted to 5×10^6 cells/ml in complete medium, cells were seeded with 100 μl per well in a flat-bottomed 96-well microtiter plate (Nunc) and plates were incubated for 4 days. Unstimulated spleen cells were incubated in the presence of different concentrations of the new adjuvants to analyze the in vitro stimulation capacity of alphaGalCerMPEG. T cell mediated immune responses were investigated at day 38 by measuring the proliferation of cells recovered from spleens after in vitro restimulation with β-Gal. […] Cells were then harvested on paper filters (Filtermat A; Wallac, Freiburg, Germany) by using a cell harvester (Inotech, Wohlen, Switzerland), and the amount of incorporated [3H]thymidine into the DNA of proliferating cells was determined by a β-scintillation counter (Wallac 1450, Micro-Trilux). The results are expressed as the arithmetic mean of [3H]thymidine uptake in cpm.

[2] = test system: in vitro re-stimulated spleen cells; assay: Cytometric Bead Array of cytokines in supernatants of in vitro re-stimulated spleen cells from vaccinated mice; assay type: in vivo; settings: parenteral administration (s.c.) with β-Gal
Experimental: To characterize the type of Th response stimulated following immunization, the content of IFN-γ, IL-2, IL-6, IL-10, MCP-1, and TNFα was measured in supernatants from in vitro re-stimulated spleen cells (FIGS. 8 and 9) by the Cytometric Bead Array. Culture supernatants from proliferating cells were collected on days 2 and 4, and stored at −70° C. Determinations of IFN-γ, TNFα, IL-2, IL-6, IL-10 and MCP-1 were performed by cytometric bead array analysis using the commercial kit from BectonDickinson, according to the manufacturer's instructions. A standard curve was generated for each cytokine by using the corresponding recombinant murine cytokines (Pharmingen). Probes were incubated at room temperature for additional 2 h. The probes were analyzed subsequently by flow cytometry as described in the protocol of BD.

[3] = test system: spleens of vaccinated mice; assay: Elispot of beta-Gal specific cytokine secreting cells in spleens of vaccinated mice; assay type: in vivo
Experimental: Experimental protocol: Spleens from vaccinated mice were removed and pooled for analysis of cellular immune responses. The protocol for vaccination was identical to the protocol described in Example 3. Cells were grown in RPMI 1640 supplemented with 10% fetal calf serum, 100 U/ml of penicillin, 50 μg/ml of streptomycin, 5×10^−5 M 2-mercaptoethanol and 1 mM L-glutamine (GIBCO BRL, Karlsruhe, Germany) and maintained at 37° C. in a humidified 5% CO2 atmosphere. Lymph node and spleen cell suspensions were adjusted to 5×10^6 cells/ml in complete medium, cells were seeded with 100 μl per well in a flat-bottomed 96-well microtiter plate (Nunc) and plates were incubated 24 h (IFNgamma) or 48 h (IL-2 and IL-4) in the absence or presence of a beta-Gal peptide (TPHARIGL) encompassing a MHC class I-restricted epitope (for IFNgamma) or the beta-Gal protein (for IL-2 and IL-4), at a concentration of 10 μM. Then, cells were removed and the plates processed according to manufacture's instructions. Colored spots were counted with a C.T.L. Elispot reader and analysed using the ImmunoSpot image analyzer software v3.2.
Thus, to further characterize the T helper responses, the number of beta-Gal specific IFNgamma, IL-2 and IL-4 secreting cells present in spleens of vaccinated mice was determined. In agreement with the above results for IgG isotypes, high numbers of IL-4 secreting cells were detected in mice receiving alphaGalCerMPEG or alphaGalCer (FIG. 10).

YAC-1 cells = assay: 51Cr-release assay with splenocytes of injected mice as effectors and YAC-1 cells as targets for NK cells; assay type: in vivo
Experimental: Experimental protocol: Mice received 10 μg of alphaGalCer or alphaGalCerMPEG by s.c. route, whereas control animals were injected by intraperitoneal route with 100 μg of CpG. After 2 days, they were sacrified and their splenocytes were used as effector cells in a standard 51Cr-release assay using YAC-1 cells as targets for NK cells. Effector cells were washed and their concentration was adjusted to 1×10^6/ml. In parallel, target cells were incubated in RPMKI medium without FCS containing 100 μCi of 51Cr for 2 h. Then, target cells were extensively washed with RPMI medium containing FCS and co-incubated in triplicates with effector cells at different effector:target (E:T) ratios. After 4 h, cells were centrifuged and the radioactivity present in supernatants was measured by scintillation counting. Maximal lysis was determined after lysis with 5% […], whereas spontaneous lysis was measured in supernatants of untreated target cells. Results are expressed as percentage of lysed cells, accordingly to the formula: (sample−spontaneous lysis)/(maximal lysis−spontaneous lysis)×100.

C57BI6 mice = assay: VITAL assay (in vivo CTL), lysis of OVA peptide-pulsed target cells in immunized mice; settings: 10 μg adjuvant with 50 μg Ovalbumin
Experimental: Experimental protocol: Six to eight weeks-old female C57BI6 mice were purchased from Harlan Winkelmann GmbH (Borchen, Germany) and treated in accordance with local and European Community guidelines. Groups of 5 mice each were immunized on day 1, 14 and 28 with 50 μg Ovalbumin (Sigma, Germany) alone or with 10 μg alphaGalCerMPEG or alphaGalCer. For intranasal immunization, 10 μl were applied to each naris, whereas for the s.c. injection Ovalbumin (ova) with or without alphaGalCerMPEG or alphaGalCer was resuspended in a volume of 50 μl PBS per animal. The determination of the in vivo lymphocyte-mediated cytotoxicity followed a protocol described by Hermans et. Al. (Herman, I. F., et. Al., 2004, The vital assay, J Immunol Methods, 285, 25-40). A suspension of splenocytes from naïve mice was depleted of red cells and split into two equal portions. The target cell preparation was labelled with a high concentration (1 μM) of CFSE (Molecular Probes) and pulsed for 1 h at 37° C. with the dominant OVA peptide (aa 257-264) at a concentration of 15 μg/ml. […] Cells from spleens were analyzed by flow cytometry after 16 h and 40 h, with the FACScalibur using the software BD cell Quest Pro. […] Cytotoxic activity was assessed with any variability in the proportion of cells in the different target populations assessed in a non-immunized control group for CTL assays.

[4] = background statement; cited from earlier work

In the case of `CCCCCCCCCCCCCCCCCCCCCCCCCC(=O)N[C@@H](CO[C@H]1O[C@H](CO)[C@H](O)[C@H](O)[C@H]1O)[C@H](O)[C@H](O)CCCCCCCCCCCCCC` [alphaGalCer, alpha-Galactosylceramide], the “stimulation of unstimulated spleen cells with different concentrations” value [1] is reported as “no dose dependent increase”, the “secretion of IFNgamma” value [2] is reported as “significant enhanced secretion” and the “secretion of IL-10” value [2] is reported as “significant enhanced secretion”. The “secretion of TNFalpha” value [2] was “significant enhanced secretion”, the “number of IL-4 secreting cells” value ([3]; spleens of vaccinated mice, beta-Gal protein 10 μM, 48 h) was “high numbers” and the “number of IFNgamma secreting cells” value ([3]; stimulation with MHC class I restricted peptide, 24 h) was “increased to a significant minor extent”. The “number of IL-2 secreting cells” value ([3]; stimulation with β-Gal protein, 48 h) was “increased to a significant minor extent”, the “lysis of YAC-1 cells” value (YAC-1 cells; effector:target ratio 50:1, splenocytes 2 days after injection) was 34% and the “lysis of YAC-1 cells” value (YAC-1 cells; effector:target ratio 100:1, splenocytes 2 days after injection) was 37%. The “fold increase of the cytotoxic potential of splenocytes with respect to OVA antigen alone (5%)” value (C57BI6 mice) was 6.4 fold, the “specific lysis of peptide-coated target cells” value (C57BI6 mice; day 1, 14 and 28) was 30% and the “solubility in aqueous solvents” value [4] was “poor”.
